From patent publication US12115251B2, “Hydrocortisone acetate suppository formulation for treatment of disease” (Cristcot LLC, priority 2015, dated 2024)

Assay type: physicochemical
Description: In order to assess the API release profile from the prototypes in Example 4 to identify a lead formulation, a robust dissolution method was developed. Solubility studies were performed on the API for the selection of dissolution media. For these studies, the active concentration of the dissolution media was 0.1 milligrams per milliliter (mg/mL).
According to USP guidelines (on sink conditions) the solubility needs to be at least 3 times the proposed active concentration. […] The studies next turned to the use of higher hydrocortisone acetate concentrations (0.3 mg/mL).
In order to avoid ionization of the hydrocortisone acetate in the dissolution media, a buffer of pH 5.0 was used in combination with 5% w/v SLS. The final composition of the dissolution media was 5% w/v SLS:acetate buffer (pH 5.0) in 70:30 combination with the pH of the final combination adjusted to 6.8-7.0.

average recovered solubility: 98.4% | % Solubility API (pH 7.2): 4.1%
SMILES: CC(=O)OCC(=O)[C@@]1(O)CC[C@H]2[C@@H]3CCC4=CC(=O)CC[C@]4(C)[C@H]3[C@@H](O)C[C@@]21C [hydrocortisone acetate]
